Data from patent US20170298051A1, “ACTIVATOR OF ADIPONECTIN RECEPTOR” (THE UNIVERSITY OF TOKYO, priority 2013, published 2017).

Biological target: T1, AdipoR1 (Homo sapiens, UniProt Q96A54)
T1 sequence (Q96A54 1-375): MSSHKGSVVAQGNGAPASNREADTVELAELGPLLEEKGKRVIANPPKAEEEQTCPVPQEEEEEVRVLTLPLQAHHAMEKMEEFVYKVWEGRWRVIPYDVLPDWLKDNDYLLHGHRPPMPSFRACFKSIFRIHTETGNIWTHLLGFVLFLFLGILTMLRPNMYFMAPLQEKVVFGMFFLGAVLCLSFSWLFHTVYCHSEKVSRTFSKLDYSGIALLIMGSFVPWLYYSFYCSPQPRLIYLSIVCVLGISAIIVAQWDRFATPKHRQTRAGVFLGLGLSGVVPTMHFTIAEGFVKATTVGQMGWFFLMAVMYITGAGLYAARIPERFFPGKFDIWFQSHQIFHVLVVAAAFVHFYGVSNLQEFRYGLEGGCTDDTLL
Experiment: Measurement of AMPK phosphorylation ability (Assay 1), HEK 293T cells, Western blotting
Assay type: cell-based
Parameters: HEK 293T cells (ATCC; CRL-3216, medium; host or cells: HEK 293T
Conditions: 10 minutes
Description: The AMPK phosphorylation ability of the respective compounds according to the present invention was measured by using differentiated C2C12 cells or HEK 293T cells.
HEK 293T cells (ATCC; CRL-3216, medium; DMEM, Fetal Bovine Serum (FBS)) were cultured in a 12- or 24-well plate until they reached 100% confluency (37° C., 5% CO2).
After starvation, a test compound listed in Tables 10 and 11 (concentration: 25 μM, 50 μM) was added thereto, and after 10 minutes, the medium was discarded and the plate was frozen with liquid nitrogen.
To the 12- or 24-well cell plate which had been frozen was added 100 or 150 μL of Cell lysis buffer pH 7.4 (50 mM HEPES (pH 7.4), 2 mM sodium orthovanadate, 10 mM sodium pyrophosphate, 10 mM NaF, 2 mM EDTA, 2 mM EGTA, 0.1% (v/v) NP-40, 0.2 mM PMSF), and the cells were scraped off with a cell scraper, suspended and transferred into a micro centrifugal tube. And then, the cells were ultrasonically crushed (1 second×3 times) with a sonicator. Centrifugation was performed at 4° C. at 15,000 rpm for 15 minutes, and the supernatant was recovered into a new tube.
To 100 μL of the supernatant was added 25 μL of 5× sample buffer (280 mM Tris-HCl (pH 6.9), 40% glycerol, 10% (3-mercaptoethanol, 13% SDS, a small amount of bromophenol blue) and mixed together. The rest of the supernatant was used for protein quantification, and the protein concentrations were uniformed by adding 1× sample buffer depending on the concentration of each sample.
An electrophoresis chamber was filled with 1× SDS buffer (25 mM Tris-HCl, 250 mM glycine, 0.1% SDS), and the sample was applied to a well of polyacrylamide gel. Electrophoresis was performed until the bromophenol blue in the sample reached to the bottom of the gel.
A filter paper was soaked in 1× Transfer buffer sufficiently, above which the PVDF membrane and the gel after electrophoresis were stacked in this order, and thereabove a filter paper which had been soaked in 1× Transfer buffer sufficiently was further stacked, from which an air was removed and the resultant was set in semi-dry type transfer apparatus and transferred (7V, 35 minutes).
An unnecessary portion of the blotted membrane was cutoff, and the rest was immediately soaked in blocking buffer (5% skimmed milk in Rinse buffer), and shaken at room temperature at 40 rpm for 3 hours.
After blocking, the membrane was transferred into Rinse buffer, and washed at room temperature for 10 minutes while shaking. The membrane was soaked in a primary antibody solution (AMPK alpha Antibody (Cell signaling; #2532) 1/1,000 in Rinse buffer, Phospho-AMPK alpha (Thr172) (40H9) antibody (Cell signaling; #2535) 1/1,000 in Rinse buffer), and shaken at 4° C. at 40 rpm overnight.
The membrane was soaked in a secondary antibody solution (goat anti-rabbit IgG-HRP Antibody (Santa Cruz; sc-2030) 1/2,000 in Rinse buffer), and shaken at room temperature at 40 rpm for 1 hour.
After the membrane was washed for 45 minutes in the same way as after the primary antibody reaction, the membrane was soaked in a chemiluminescent reaction solution (ECL Western Blotting Detection Reagents, GE Healthcare) for about 1 minute. An excess of the reaction solution was removed, and then the membranes were arranged on a transparent film and sandwiched with it, with which an X-ray film was exposed in a darkroom (for about several seconds to 60 seconds) to develop the film.
The X-ray film was scanned to take the image, for which the band was measured by using the image analysis software “Image J” to determine the respective amounts of pAMPK and AMPK.

| SMILES | pAMPK/AMPK (%) (25 μM) | pAMPK/AMPK (%) (50 μM) |
| --- | --- | --- |
| CCOc1ccccc1C(=O)N1CCC(NC(=O)OCc2ccc([N+](=O)[O-])cc2)CC1 [Compound 23] | 51.41 | 49.81 |
| Cc1ccccc1CN1CCC(NC(=O)COc2ccc(C(C)C)cc2)CC1 [Compound 1] | 70.10 | 63.92 |
| O=C(NCCC(=O)N1CCN(Cc2cccc(O)c2)CC1)c1ccc(Br)cc1 [Compound 56] | 49.23 | 40.38 |
| COc1ccc(CN2CCN(C(=O)CCNC(=O)c3ccc([N+](=O)[O-])cc3)CC2)cc1F [Compound 68] | 53.92 | 45.94 |
| COc1ccccc1CN1CCN(C(=O)CCNC(=O)c2ccc3ccccc3c2)CC1 [Compound 71] | 78.18 | 65.40 |
| COc1ccc(CN2CCC(NC(=O)COc3ccc([N+](=O)[O-])cc3)CC2)cc1F [Compound 24] | 23.68 | 60.46 |
| O=C(NCCC(=O)N1CCN(Cc2ccc(F)cc2Cl)CC1)c1ccc(Cl)cc1 [Compound 55] | 61.64 | 105.20 |
| Cc1cc(OCC(=O)NC2CCN(C(N)=O)CC2)ccc1C(C)C [Compound 3] | 39.02 | 44.32 |
| COc1ccccc1CN1CCN(C(=O)CCNC(=O)c2ccccc2C)CC1 [Compound 49] | 42.40 | 34.07 |
| CCCOc1ccc(OCC(=O)NC2CCN(C(=O)c3ccc(OCC)cc3)CC2)cc1 [Compound 44] | 72.14 | 78.77 |
| COc1ccc(CN2CCN(C(=O)CCNC(=O)c3ccc(Br)cc3)CC2)cc1OC [Compound 59] | 74.09 | 78.14 |
| O=C(NCCC(=O)N1CCN(Cc2cccc(C(F)(F)F)c2)CC1)c1ccc([N+](=O)[O-])cc1 [Compound 67] | 70.98 | 70.70 |
| CCCOc1ccc(OCC(=O)NC2CCN(C(=O)c3ccc(C)cc3)CC2)cc1 [Compound 42] | 69.97 | 89.62 |
| CC1CN(Cc2ccccc2)CCC1NC(=O)COc1ccc(N2CCCC2=O)cc1 (stereo not shown) [Compound 26] | 55.06 | 56.65 |
| COc1ccc(CN2CCN(C(=O)CCNC(=O)c3ccc(F)cc3F)CC2)cc1OC [Compound 62] | 72.75 | 80.92 |
| COc1ccc(OC)c(CN2CCN(C(=O)CCNC(=O)c3ccc([N+](=O)[O-])cc3)CC2)c1 [Compound 66] | 43.00 | 55.80 |
| CCc1ccc(OCC(=O)NC2CCN(Cc3ccc(OC)c(F)c3)CC2)cc1 [Compound 5] | 69.72 | 62.88 |
| CCCOc1ccc(OCC(=O)NC2CCN(Cc3ccccc3)C(C)C2)cc1 (stereo not shown) [Compound 41] | 62.03 | 69.38 |
| CCOc1ccc(C(=O)N2CCC(NC(=O)COc3ccc([N+](=O)[O-])cc3)CC2)cc1 [Compound 22] | 61.45 | 67.26 |
| Cc1ccccc1CN1CCN(C(=O)CCNC(=O)c2ccc([N+](=O)[O-])cc2)CC1 [Compound 63] | 65.40 | 68.22 |
| O=C(COc1ccc(N2CCCC2=O)cc1)NC1CCN(C(=O)c2ccccc2F)CC1 [Compound 25] | 40.07 | 42.87 |
| COc1ccccc1CN1CCN(C(=O)CCNC(=O)c2ccc(Cl)cc2)CC1 [Compound 57] | 30.26 | 45.31 |

| SMILES | pAMPK/AMPK (%) (25 μM) | pAMPK/AMPK (%) (50 μM) |
| --- | --- | --- |
| COc1ccc(CN2CCN(C(=O)CCNC(=O)c3ccccc3)CC2)c(OC)c1OC [Compound 51] | 33.33 | 55.14 |
| COc1ccccc1CN1CCN(C(=O)CCNC(=O)c2ccc(Br)cc2)CC1 [Compound 58] | 41.20 | 62.58 |
| NC(=O)c1ccc(OCC(=O)NC2CCN(Cc3ccc(F)c(F)c3)CC2)cc1 [Compound 20] | 47.30 | 60.30 |
| CCC(=O)c1ccc(OCC(=O)NC2CCN(Cc3ccccc3C)CC2)cc1 [Compound 16] | 55.49 | 46.30 |
| O=C(NCCC(=O)N1CCN(Cc2cccc(O)c2)CC1)c1ccc(Cl)cc1 [Compound 54] | 57.51 | 33.78 |
| CC(c1ccccc1)N1CCC(NC(=O)COc2ccc(C(F)(F)F)cc2)CC1 (stereo not shown) [Compound 9] | 23.69 | 62.46 |
| CC(C)c1ccc(OCC(=O)NC2CCN(C(C)c3ccccc3)CC2)cc1 (stereo not shown) [Compound 2] | 77.78 | 90.47 |
| COc1cc(C(C)=O)ccc1OCC(=O)NC1CCN(C(C)c2ccccc2)CC1 (stereo not shown) [Compound 13] | 40.65 | 39.95 |
| O=C(COc1ccc(I)cc1)NC1CCN(Cc2ccccc2)CC1 [Compound 10] | 83.62 | 72.56 |
| Cc1ccc(C(=O)N2CCC(NC(=O)COc3ccc(C(F)(F)F)cc3)CC2)cc1 [Compound 8] | 77.49 | 72.23 |
| COc1ccccc1CN1CCC(NC(=O)COc2ccc(C)cc2)CC1 [Compound 4] | 47.44 | 45.44 |
| COc1ccc(CN2CCN(C(=O)CCNC(=O)c3ccc([N+](=O)[O-])cc3)CC2)cc1 [Compound 65] | 62.79 | 69.84 |
| CC(C)(C)c1ccc(OCC(=O)NC2CCN(Cc3ccc(F)cc3)CC2)cc1 [Compound 6] | 24.57 | 60.56 |
| CCCOc1ccc(OCC(=O)NC2CCN(C(C)c3ccccc3)CC2)cc1 (stereo not shown) [Compound 43] | 77.13 | 82.95 |
| Cc1ccc(C(=O)N2CCC(NC(=O)COc3ccc(C4SCCCS4)cc3)CC2)cc1 [Compound 29] | 72.45 | 74.42 |
| CCOc1ccc(OCC(=O)NC2CCN(Cc3ccccc3C)CC2)cc1 [Compound 39] | 64.98 | 61.18 |
| COc1cccc(C(=O)N2CCN(CCC(=O)NC3CC3)CC2)c1 [Compound 72] | 42.05 | 46.92 |
| CC(c1ccccc1)N1CCC(NC(=O)COc2ccc(-c3ccccc3)cc2)CC1 (stereo not shown) [Compound 7] | 79.86 | 94.13 |
| CCOc1ccc(C(=O)N2CCC(NC(=O)COc3ccc(N4CCCC4=O)cc3)CC2)cc1 [Compound 27] | 45.54 | 37.30 |
| CC(C)(C)c1ccc(C(=O)NCCC(=O)N2CCN(Cc3cccc(O)c3)CC2)cc1 [Compound 52] | 66.63 | 85.17 |
| Cc1cccc(CN2CCC(NC(=O)COc3ccc(C4SCCCS4)cc3)CC2)c1 [Compound 28] | 71.21 | 78.89 |
| CCC(=O)c1ccc(OCC(=O)NC2CCN(Cc3ccc(Cl)c(Cl)c3)CC2)cc1 [Compound 17] | 88.72 | 75.82 |
